# According to ChEMBL document CHEMBL1201862, “PubChem BioAssay data set” (2004):
# Where a name gives a salt, the structure may show the parent alone.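 Test compounds were applied to cells in 96-well plates for 48 hours at 5 doses. GI50 is the concentration that inhibits growth by half.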 Activity calls are given as the source filed them. No stated cut-off is given here; in the data, active = GI50 up to about 1.1 µM and inactive = higher. Non-standard residues stand in square brackets, D forms with d. Residues, ends and D or L forms follow the SMILES beside them. ξ: configuration not given here. *: point of attachment. X18 = COC1=CC(=O)N(C(=O)C(O*)C(C)C)C1Cc1ccccc1; ξNMe2Val = CC(C)C(C(=O)*)N(C)C; NMeV = CN[CH](C(=O)O)C(C)C
# Assays:
# Assay in all cases: inhibition of tumour cell growth, NCI panel, 48 h
# MDA-MB-231 = test system: MDA-MB-231
# SF-295 = test system: SF-295
# OVCAR-4 = test system: OVCAR-4
# MDA-N = test system: MDA-N
# K562 = test system: K562
# Malme-3M = test system: Malme-3M
# SNB-19 = test system: SNB-19
# HOP-62 = test system: HOP-62
# LOX IMVI = test system: LOX IMVI
# T47D = test system: T47D
# DMS-273 = test system: DMS-273
# HOP-92 = test system: HOP-92
# XF498 = test system: XF498
# IGROV-1 = test system: IGROV-1
# SK-MEL-28 = test system: SK-MEL-28
# TK-10 = test system: TK-10
# HL-60 = test system: HL-60
# A498 = test system: A498
# RPMI-8226 = test system: RPMI-8226
# SR = test system: SR
# U-251 = test system: U-251
# HT-29 = test system: HT-29
# SNB-78 = test system: SNB-78
# 786-0 = test system: 786-0
# HCC 2998 = test system: HCC 2998
# M14 = test system: M14
# BT-549 = test system: BT-549
# SW-620 = test system: SW-620
# KM-20L2 = test system: KM-20L2
# SNB-75 = test system: SNB-75
# DU-145 = test system: DU-145
# PC-3 = test system: PC-3
# UACC-62 = test system: UACC-62
# RXF 631 = test system: RXF 631
# HCT-116 = test system: HCT-116
# SK-MEL-5 = test system: SK-MEL-5
# NCI-H522 = test system: NCI-H522
# NCI-H226 = test system: NCI-H226
# UO-31 = test system: UO-31
# COLO 205 = test system: COLO 205
# MCF7 = test system: MCF7
# KM12 = test system: KM12
# DMS-114 = test system: DMS-114
# UACC-257 = test system: UACC-257
# SF-268 = test system: SF-268
# NCI/ADR-RES = test system: NCI/ADR-RES
# LXFL 529 = test system: LXFL 529
# NCI-H460 = test system: NCI-H460
# DLD-1 = test system: DLD-1
# MOLT-4 = test system: MOLT-4
# OVCAR-8 = test system: OVCAR-8
# ACHN = test system: ACHN
# SF-539 = test system: SF-539
# CCRF-CEM = test system: CCRF-CEM
# CAKI-1 = test system: CAKI-1
# HCT-15 = test system: HCT-15
# Hs-578T = test system: Hs-578T
# SK-OV-3 = test system: SK-OV-3
# NCI-H23 = test system: NCI-H23
# OVCAR-5 = test system: OVCAR-5
# SN12C = test system: SN12C
# MDA-MB-435 = test system: MDA-MB-435
# EKVX = test system: EKVX
# SK-MEL-2 = test system: SK-MEL-2
# HOP-18 = test system: HOP-18
# A549 = test system: A549
# RXF 393 = test system: RXF 393
# OVCAR-3 = test system: OVCAR-3
# M19-MEL = test system: M19-MEL
structure (smiles),measurement,setting,value
CC(=O)N(O)CCCCCNC(=O)CCC(=O)N(O)CCCCCNC(=O)CCC(=O)N(O)CCCCCN [DEFEROXAMINE HYDROCHLORIDE],GI50,MDA-MB-231,> 100000 nM (inactive)
same,GI50,SF-295,7380 nM (inactive)
same,GI50,OVCAR-4,21700 nM (inactive)
same,GI50,MDA-N,53200 nM (inactive)
same,GI50,K562,57500 nM (inactive)
same,GI50,Malme-3M,55100 nM (inactive)
same,GI50,SNB-19,51600 nM (inactive)
same,GI50,HOP-62,18400 nM (inactive)
same,GI50,LOX IMVI,13500 nM (inactive)
same,GI50,T47D,> 100000 nM (inactive)
same,GI50,DMS-273,28200 nM (inactive)
same,GI50,HOP-92,> 100000 nM (inactive)
same,GI50,XF498,> 100000 nM (inactive)
same,GI50,IGROV-1,65600 nM (inactive)
same,GI50,SK-MEL-28,37900 nM (inactive)
same,GI50,TK-10,42000 nM (inactive)
same,GI50,HL-60,31000 nM (inactive)
same,GI50,A498,> 80400 nM (inactive)
same,GI50,RPMI-8226,62500 nM (inactive)
same,GI50,SR,8870 nM (inactive)
same,GI50,U-251,20600 nM (inactive)
same,GI50,HT-29,36600 nM (inactive)
same,GI50,SNB-78,> 100000 nM (inactive)
same,GI50,786-0,13300 nM (inactive)
same,GI50,HCC 2998,55700 nM (inactive)
same,GI50,M14,19000 nM (inactive)
same,GI50,BT-549,57500 nM (inactive)
same,GI50,SW-620,29100 nM (inactive)
same,GI50,KM-20L2,17800 nM (inactive)
same,GI50,SNB-75,> 100000 nM (inactive)
same,GI50,DU-145,13600 nM (inactive)
same,GI50,PC-3,> 73600 nM (inactive)
same,GI50,UACC-62,31600 nM (inactive)
same,GI50,RXF 631,26900 nM (inactive)
same,GI50,HCT-116,14000 nM (inactive)
same,GI50,SK-MEL-5,21700 nM (inactive)
same,GI50,NCI-H522,41900 nM (inactive)
same,GI50,NCI-H226,26900 nM (inactive)
same,GI50,UO-31,24500 nM (inactive)
same,GI50,COLO 205,34700 nM (inactive)
same,GI50,MCF7,37900 nM (inactive)
same,GI50,KM12,26700 nM (inactive)
same,GI50,DMS-114,43400 nM (inactive)
same,GI50,UACC-257,50400 nM (inactive)
same,GI50,SF-268,24900 nM (inactive)
same,GI50,NCI/ADR-RES,> 72300 nM (inactive)
same,GI50,LXFL 529,36400 nM (inactive)
same,GI50,NCI-H460,6530 nM (inactive)
same,GI50,DLD-1,45300 nM (inactive)
same,GI50,MOLT-4,11200 nM (inactive)
same,GI50,OVCAR-8,38400 nM (inactive)
same,GI50,ACHN,12500 nM (inactive)
same,GI50,SF-539,30100 nM (inactive)
same,GI50,CCRF-CEM,4480 nM (inactive)
same,GI50,CAKI-1,42400 nM (inactive)
same,GI50,HCT-15,16800 nM
same,GI50,Hs-578T,> 100000 nM (inactive)
same,GI50,SK-OV-3,38200 nM (inactive)
same,GI50,NCI-H23,63500 nM (inactive)
same,GI50,OVCAR-5,12500 nM (inactive)
same,GI50,SN12C,25900 nM (inactive)
same,GI50,MDA-MB-435,> 78500 nM (inactive)
same,GI50,EKVX,29000 nM (inactive)
same,GI50,SK-MEL-2,> 92700 nM (inactive)
same,GI50,HOP-18,12700 nM (inactive)
same,GI50,A549,14500 nM (inactive)
same,GI50,RXF 393,57400 nM (inactive)
same,GI50,OVCAR-3,20900 nM (inactive)
same,GI50,M19-MEL,43800 nM (inactive)
COC1=CC(=O)N(C(=O)C(OC(=O)C2CCCN2C(=O)C2CCCN2C(=O)C(C(C)C)N(C)C(=O)C(NC(=O)C(C(C)C)N(C)C)C(C)C)C(C)C)C1Cc1ccccc1 (stereo not drawn) (ξNMe2Val-V[NMeV]PP-X18; configuration not given here),GI50,MDA-MB-231,1.46 nM (active)
same,GI50,SF-295,1.61 nM (active)
same,GI50,OVCAR-4,8.26 nM (active)
same,GI50,MDA-N,0.0361 nM (active)
same,GI50,K562,0.349 nM (active)
same,GI50,Malme-3M,2.7 nM (active)
same,GI50,SNB-19,6.29 nM (active)
same,GI50,HOP-62,4.61 nM (active)
same,GI50,LOX IMVI,0.849 nM (active)
same,GI50,T47D,< 10 nM (active)
same,GI50,DMS-273,1.03 nM (active)
same,GI50,HOP-92,2.94 nM (active)
same,GI50,XF498,0.308 nM (active)
same,GI50,IGROV-1,2.31 nM (active)
same,GI50,SK-MEL-28,3.09 nM (active)
same,GI50,TK-10,6.82 nM (active)
same,GI50,HL-60,0.171 nM (active)
same,GI50,A498,4.24 nM (active)
same,GI50,RPMI-8226,0.524 nM (active)
same,GI50,SR,0.251 nM (active)
same,GI50,U-251,2.35 nM (active)
same,GI50,HT-29,0.573 nM (active)
same,GI50,SNB-78,2.44 nM (active)
same,GI50,786-0,2.23 nM (active)
same,GI50,HCC 2998,2.05 nM (active)
same,GI50,M14,2.7 nM (active)
same,GI50,BT-549,0.46 nM (active)
same,GI50,SW-620,0.469 nM (active)
same,GI50,KM-20L2,1.35 nM (active)
same,GI50,SNB-75,1.8 nM (active)
same,GI50,DU-145,0.618 nM (active)
same,GI50,PC-3,1.58 nM (active)
same,GI50,UACC-62,1.89 nM (active)
same,GI50,RXF 631,4.59 nM (active)
same,GI50,HCT-116,0.582 nM (active)
same,GI50,SK-MEL-5,1.09 nM (active)
same,GI50,NCI-H522,0.347 nM (active)
same,GI50,NCI-H226,7.73 nM (active)
same,GI50,UO-31,9.38 nM (active)
same,GI50,COLO 205,1.63 nM (active)
same,GI50,MCF7,0.24 nM (active)
same,GI50,KM12,2.38 nM (active)
same,GI50,DMS-114,0.476 nM (active)
same,GI50,UACC-257,2.5 nM (active)
same,GI50,SF-268,1.89 nM (active)
same,GI50,NCI/ADR-RES,23.4 nM (active)
same,GI50,LXFL 529,1.19 nM (active)
same,GI50,NCI-H460,1.58 nM (active)
same,GI50,DLD-1,1.08 nM (active)
same,GI50,MOLT-4,1.02 nM (active)
same,GI50,OVCAR-8,2.01 nM (active)
same,GI50,ACHN,9.31 nM (active)
same,GI50,SF-539,1.35 nM (active)
same,GI50,CCRF-CEM,0.309 nM (active)
same,GI50,CAKI-1,1.03 nM (active)
same,GI50,HCT-15,1.4 nM
same,GI50,Hs-578T,0.188 nM (active)
same,GI50,SK-OV-3,4.85 nM (active)
same,GI50,NCI-H23,3.15 nM (active)
same,GI50,OVCAR-5,< 10 nM (active)
same,GI50,SN12C,1.88 nM (active)
same,GI50,MDA-MB-435,0.0513 nM (active)
same,GI50,EKVX,2.42 nM (active)
same,GI50,SK-MEL-2,0.902 nM (active)
same,GI50,HOP-18,< 10 nM (active)
same,GI50,A549,9.55 nM (active)
same,GI50,RXF 393,1.64 nM (active)
same,GI50,OVCAR-3,0.327 nM (active)
same,GI50,M19-MEL,3.19 nM (active)
